Patent publication US9469653B2, “Pharmaceutical compositions for preventing or treating degenerative brain disease and method of screening the same” (KOREA INSTITUTE OF SCIENCE AND TECHNOLOGY, priority 2011, dated 2016)

Experiments:
human MAO-B enzyme [1] = biological target: T1, human MAO-B enzyme (Homo sapiens (Human), UniProt P27338); assay: Screening of MAO-B activity inhibition (Amplex Red monoamine oxidase assay kit, benzylamine substrate); format: biochemical; details: 10 uM of the synthesized compound, pargyline-corrected
Procedure: A stock solution was prepared using a human MAO-B enzyme (purchased from Aldrich) and a Amplex® Red monoamine oxidase assay kit according to a preparation manual. The kit includes a 5× reaction buffer, an Amplex® red reagent (1 mg), HRP, DMSO, H2O2, p-tyramine (substrate of MAO-A, B), benzylamine (substrate of MAO-B), clorgiline (inhibitor of MAO-A), and pargyline (inhibitor of MAO-B). Among these reagents in the kit, benzylamine was used as a substrate for MAO-B, and pargyline was used as an MAO-B inhibitor. A solution as overall substrates was prepared as follows. 200 ul of a solution of 1 mg of Amplex® red sufficiently dissolved in 200 ul of DMSO, 100 ul of a mixed solution of HRP and 1 ml of a 1× buffer, 200 ul of a solution of benzylamine dissolved in 1.2 ml of dH2O were added to 9.5 ml of a 1× buffer to reach a total volume of 10 mL, which is sufficient for 100 wells. 0.5 ul of a mixture of MAO-B inhibitor pargyline and 1 ml of dH2O was put into each well. First, the activity of MAO-B was determined using 10 uM of the synthesized compound.
96 wells were injected with positive and negative types, and the wile type. The positive type included only substrate and hydrogen peroxide, and the negative type included only substrate. For the wild type, corresponding wells were injected with the enzyme, substrate, and MAO-B inhibitor, but with no synthesized compound. Afterward, 2 ul of the synthesized compound (1 mM) was added into each well, and the human MAO-B enzyme was put only into the 1st row of wells. 0.5 ug of the human MAO-B was put into each well along with 100 ul of a 1× buffer. The human MAO-B enzyme was put into the 2nd row of the wells along with 0.5 ul of a pargyline, the MAO-B inhibitor. To reduce an experimental error for accuracy, the test was repeated three times for each compound. After 30 minutes, 100 ul of the substrate solution was added into each well in a darkroom. The test was performed in the darkroom due to light sensitivity of the Amplex® reagent. Finally, a total volume of the reaction solution per well reached 200 ul. After about 2 to 3 hours, chromophoric degrees of the samples were measured. A variation in data values for the 1st and 2nd rows of the wells indicates the pure reaction activity of the MAO-B enzyme with the substrate. Using the samples with the synthesized compound the remaining activity of MAO-B after inhibited by the synthesized compound may be determined. This is because the activities of the other enzymes excluding the MAO-B enzyme may be excluded through this method. Compounds with high inhibitory activity at a concentration of 10 uM were screened from among the synthesized compounds at a compound concentration of 10 uM.

human MAO-B enzyme [2] = biological target: T1, human MAO-B enzyme; assay: as above; format: biochemical; details: activity assay at 0.001, 0.01, 0.1, 1 and 10 uM

T1 sequence (P27338 whole entry): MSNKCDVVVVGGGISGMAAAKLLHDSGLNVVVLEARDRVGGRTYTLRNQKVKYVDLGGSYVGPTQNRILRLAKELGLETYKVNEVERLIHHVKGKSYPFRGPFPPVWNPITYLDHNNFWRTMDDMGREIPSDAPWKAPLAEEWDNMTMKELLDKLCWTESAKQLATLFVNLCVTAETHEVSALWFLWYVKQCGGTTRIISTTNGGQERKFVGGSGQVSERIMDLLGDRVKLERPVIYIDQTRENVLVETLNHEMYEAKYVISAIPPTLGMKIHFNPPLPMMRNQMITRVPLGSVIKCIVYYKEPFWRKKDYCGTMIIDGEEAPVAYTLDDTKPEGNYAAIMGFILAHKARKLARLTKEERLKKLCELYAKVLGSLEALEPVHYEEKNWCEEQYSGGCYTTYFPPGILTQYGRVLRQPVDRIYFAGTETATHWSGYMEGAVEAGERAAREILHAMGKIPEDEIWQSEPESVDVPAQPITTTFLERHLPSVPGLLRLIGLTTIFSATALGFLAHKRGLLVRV

SMILES | Remaining activity of MAO-B (%) (human MAO-B enzyme [1]) | IC50 (human MAO-B enzyme [2])
CN(Cc1ccccc1)c1ccc2nc(-c3cccc(Cl)c3)oc2n1 [Example 5-67, N-benzyl-2-(3-chlorophenyl)-N-methyloxazolo[5,4-b]pyridine-5-amine] | 47.3% | 68.2 µM
c1ccc(CNc2ccc3nc(-c4ccccc4)sc3n2)cc1 [Example 5-58, N-benzyl-2-phenylthiazolo[5,4-b]pyridine-5-amine] | 60.8% | 1900 µM
CNc1ccc2nc(-c3cccc(Cl)c3)oc2n1 [Example 5-76, 2-(3-chlorophenyl)-N-methyloxazolo[5,4-b]pyridine-5-amine] | 4.4% | 2.99 µM
CN(Cc1ccccc1)c1ccc2nc(-c3ccc(Cl)cc3)oc2n1 [Example 5-68, N-benzyl-2-(4-chlorophenyl)-N-methyloxazolo[5,4-b]pyridine-5-amine] | 24.1% | 5.08 µM
CNc1ccc2nc(-c3cccc(F)c3)oc2n1 [Example 5-75, 2-(3-fluorophenyl)-N-methyloxazolo[5,4-b]pyridine-5-amine] | 22% | 9.86 µM

Continued, values first:

Remaining activity of MAO-B (%) (human MAO-B enzyme [1]) | IC50 (human MAO-B enzyme [2]) | SMILES
7.7% | 112 µM | Clc1ccccc1-c1nc2ccc(N3CCCC3)nc2o1 [Example 5-32, 2-chlorophenyl-5-(pyrrolidine-1-yl)oxazolo[5,4-b]pyridine]
26.5% | 10.1 µM | Fc1ccc(-c2nc3ccc(N4CCCCC4)nc3o2)cc1 [Example 5-45, 2-(4-fluorophenyl)-5-(piperidine-1-yl)oxazolo[5,4-b]pyridine]
0.6% | 13.2 µM | Clc1ccccc1-c1nc2ccc(N3CCCCC3)nc2o1 [Example 5-39, 2-chlorophenyl-5-(piperidine-1-yl)oxazolo[5,4-b]pyridine]
1.8% | 8.3 µM | c1ccc(-c2nc3ccc(N4CCCCC4)nc3s2)cc1 [Example 5-38, 2-phenyl-5-(piperidine-1-yl)thiazolo[5,4-b]pyridine]
13.8% | 0.27 µM | Fc1cccc(-c2nc3ccc(N4CCCCC4)nc3o2)c1 [Example 5-40, 2-(3-fluorophenyl)-5-(piperidine-1-yl)oxazolo[5,4-b]pyridine]
